From paper PMC12356897 (Nature Communications, 2025)

Legend:
[1] = test system: 11 human cyclins (D1/2/3, E1/2, A1/2, B1/2/3 and F); test: SIMBA, cyclin binding and specificity across the cyclin panel; assay type: cell-based; details: result in words; for cyclin specificity in SIMBA: 13-mer peptides centered on P0; for cyclin binding in the tiled library SIMBA screen: tiled 16-mer peptides
human cyclin A2 = test: Proteomic peptide phage display; assay type: binding; details: result in words; HD2 library of 16-mer peptides, four selection rounds
human cyclin B1 = test: Proteomic peptide phage display; assay type: binding; details: result in words; HD2 library of 16-mer peptides, four selection rounds

Sequence | cyclin specificity in SIMBA [1] | also measured
SNARRSLNFGGST [SCAPER] | bound preferentially to cyclin A2 | –
VKTKKRLNFDDKV [CENPC] | bound preferentially to cyclin A2 | –
VSAVQKLDFSDTMVQQ [PKN2 peptide] | – | enrichment in ProP-PD selection, cyclin A2 (human cyclin A2): dominated; enrichment in ProP-PD selection, cyclin B1 (human cyclin B1): dominated
QLRRQLSFSED [MICAL3] | – | cyclin binding in the tiled library SIMBA screen [1]: strong B1-binding motif
YKVKRRLVFGADD [MuHV-1 M97] | bind to members of all four families | –
PPARRRLRLSVDE [CDT1] | bound preferentially to cyclin A2 | –
SLVVGKLSFDSSP [CDC42EP1] | bound cyclin B1 specifically | –
DDIVSKLVFDFVE [DBF4] | bound cyclin B1 specifically | –
SKACRRLFGPVDS [CDKN1A (p21)] | bound all cyclin types except B | –

More lines, main results first:

cyclin specificity in SIMBA [1] | Sequence | also measured
bound cyclin B1 specifically | HELFQRLDFDNDG [DNAH7] | –
bound preferentially to cyclin A2 | PRARKRLELGNLG [ORC1] | cyclin specificity in SIMBA ([1]; listed as ORC1 RxL): cyclin A-specific
bind to members of all four families | KAIRKLHFEDE [INSM1] | cyclin binding in the tiled library SIMBA screen [1]: cyclin D1-binding motif
